*1 amine or outer side, *2 acyl side, *3 side chain or, on linkers, in order; H or OH if unused. Where a SMILES comes first, the peptide text is derived from it. Bridges are numbered along the chain shown (N, C = ends). CH2COCH2 = O=C(C[*:1])C[*:2]; X1 = C(=C\C[*:2])/C[*:1]

We go through eleven compounds from ChEMBL document CHEMBL5113377, “Development of Selective FXIa Inhibitors Based on Cyclic Peptides and Their Application for Safe Anticoagulation” (J Med Chem, 2021).

In series [1] the test system is Plasma. The series is described as follows: Anticoagulant activity in CaCl2-activated human plasma assessed as fold prolongation of activated partial thromboplastin time at 30 uM relative to control. It counts as functional.
In a further series the target is Coagulation factor XI (Homo sapiens, UniProt P03951). Kind of series: Inhibition of biotinylated human FXIa assessed as inhibition of p-nitroaniline release using Pyr-Pro-Arg-pNA as substrate measured for 20 mins.
Sequence of Coagulation factor XI (P03951 19-387 limits assumed): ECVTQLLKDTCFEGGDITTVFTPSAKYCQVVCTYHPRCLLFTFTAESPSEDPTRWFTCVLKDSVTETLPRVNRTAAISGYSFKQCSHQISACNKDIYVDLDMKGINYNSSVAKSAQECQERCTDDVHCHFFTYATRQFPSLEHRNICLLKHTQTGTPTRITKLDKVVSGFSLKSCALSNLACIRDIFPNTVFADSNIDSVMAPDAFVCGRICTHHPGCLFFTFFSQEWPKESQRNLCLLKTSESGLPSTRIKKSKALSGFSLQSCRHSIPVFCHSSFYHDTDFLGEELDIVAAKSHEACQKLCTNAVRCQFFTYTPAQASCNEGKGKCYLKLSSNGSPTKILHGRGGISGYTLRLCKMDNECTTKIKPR
Sequence of Coagulation factor XI (P03951 388-625 limits assumed): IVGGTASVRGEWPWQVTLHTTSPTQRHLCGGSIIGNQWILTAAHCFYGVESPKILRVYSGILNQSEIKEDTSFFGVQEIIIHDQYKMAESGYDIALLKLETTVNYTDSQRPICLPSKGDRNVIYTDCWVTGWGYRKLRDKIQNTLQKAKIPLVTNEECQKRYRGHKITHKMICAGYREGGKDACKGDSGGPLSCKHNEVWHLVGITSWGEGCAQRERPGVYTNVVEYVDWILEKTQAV
Series [2] concerns Plasma. The series is described as follows: Anticoagulant activity in CaCl2-activated human plasma assessed as concentration required to achieve 5.1 fold prolongation of activated partial thromboplastin time. The class given is functional.
For series [3], the system named is Plasma. The series is described as follows: Anticoagulant activity in CaCl2-activated human plasma assessed as concentration required to achieve 1.6 fold prolongation of activated partial thromboplastin time. The class given is functional.
For series [4], the system named is Blood. The series is described as follows: Anticoagulant activity in human blood assessed as concentration required to achieve the effects achieved with minimal therapeutic dose of UFH for prolongation of aPTT. The class given is functional.
Series [5] concerns Plasma. Kind of series: Anticoagulant activity in CaCl2-activated human plasma assessed as prolongation of activated partial thromboplastin time. The class given is functional.
Series [6] is filed under the species Homo sapiens. The series is described as follows: Selectivity for biotinylated human FXIa over plasmin (unknown origin).
The species named for series [7] is Homo sapiens. Kind of series: Selectivity for biotinylated human FXIa over tPA (unknown origin).
For series [8], the species on record is Homo sapiens. The series is described as follows: Selectivity for biotinylated human FXIa over trypsin (unknown origin).
For series [9], the species on record is Homo sapiens. The series is described as follows: Selectivity for biotinylated human FXIa over plasma kallikrein (unknown origin).
The species entered for series [10] is Homo sapiens. Kind of series: Selectivity for biotinylated human FXIa over beta-FXIIa (unknown origin).
Series [11] is filed under the species Homo sapiens. Kind of series: Selectivity for biotinylated human FXIa over thrombin (unknown origin).
The species entered for series [12] is Homo sapiens. Kind of series: Selectivity for biotinylated human FXIa over uPA (unknown origin).
A short description of series [13]: Stability in human plasma assessed as half life at 40 uM measured for 48 hrs. The class given is ADME, cell-free.
In series [14] the test system is Plasma. The series is described as follows: Anticoagulant activity in rabbit plasma assessed as prolongation of activated partial thromboplastin time. The class given is functional, Oryctolagus cuniculus.
The subject of series [15] is Blood. The series is described as follows: Anticoagulant activity in human whole blood assessed as activated clotting time. It counts as functional.

Consider `CC(C)C[C@@H]1NC(=O)[C@H](CCC(N)=O)NC(=O)[C@@H]2CCCN2C(=O)[C@@H](NC(=O)[C@@H](N)CO)CSC/C=C/CSC[C@@H](C(=O)N[C@@H](CO)C(=O)N[C@@H](CCCNC(=N)N)C(=O)N[C@H](C(=O)N[C@@H](CCCNC(=N)N)C(=O)N[C@H]2CSC/C=C/CSC[C@@H](C(=O)N[C@@H](CO)C(=O)O)NC(=O)[C@H](CC(=O)O)NC(=O)[C@H](CC(C)C)NC(=O)[C@H](C(C)C)NC2=O)[C@@H](C)O)NC(=O)[C@H](Cc2ccc(O)cc2)NC(=O)[C@H](CCC(=O)O)NC1=O` (H-SCPQLEYCSRTRCVLDCS-OH; linker 2-8, 13-17 via X1), for which the “fold change (FC)” value with Plasma [1] stood at 1.6. In addition, the Ki (as a rule, the equilibrium dissociation constant of an inhibitor or competing ligand from its target) on Coagulation factor XI was found to be 31 nM.

For the compound `CC(C)C[C@H](NC(=O)[C@@H](NC(=O)[C@@H]1CSC/C=C/CSC[C@H](NC(=O)[C@@H](N)CCC(=O)O)C(=O)N[C@@H](CCCCN)C(=O)N[C@@H]([C@@H](C)O)C(=O)N2CCC[C@H]2C(=O)N[C@@H](CCCNC(=N)N)C(=O)N[C@@H](CCC(=O)O)C(=O)N1)[C@@H](C)O)C(=O)N[C@H](C(=O)N[C@@H](CCCNC(=N)N)C(=O)N[C@H]1CSC/C=C/CSC[C@@H](C(=O)N[C@@H](CCC(=O)O)C(=O)O)NC(=O)[C@H](CO)NC(=O)[C@H](Cc2cnc[nH]2)NC(=O)[C@H](C(C)C)NC1=O)[C@@H](C)O` (H-ECKTPRECTLTRCVHSCE-OH; linker 2-8, 13-17 via X1), the “fold change (FC)” value in the series on Plasma [1] is reported as 2. The inhibition constant (Ki) on Coagulation factor XI came out at 7.7 nM.

On to `CC(C)C[C@@H]1NC(=O)CNC(=O)[C@H](CCC(N)=O)NC(=O)[C@@H](NC(=O)[C@@H](N)CCCNC(=N)N)CSCC(=O)CSC[C@@H](C(=O)N[C@@H](Cc2ccccc2)C(=O)N[C@H](C(=O)N[C@@H](CO)C(=O)N[C@@H](CC(N)=O)C(=O)N[C@@H](CCCCN)C(=O)N[C@@H](Cc2ccc(O)cc2)C(=O)N[C@H]2CSCC(=O)CSC[C@@H](C(=O)N3CCC[C@H]3C(=O)O)NC(=O)[C@H](CCCNC(=N)N)NC(=O)[C@H](C)NC2=O)[C@@H](C)O)NC(=O)[C@H](Cc2c[nH]c3ccccc23)NC1=O` (H-RCQGLWCFTSNKYCARCP-OH; linker 2-7, 14-17 via CH2COCH2), for which the “fold change (FC)” value in the series with Plasma [1] came out at 3.2. Further, at Coagulation factor XI, the inhibition constant (Ki) was 62 nM.

`CC[C@H](C)[C@@H]1NC(=O)[C@H](CCCNC(=N)N)NC(=O)[C@H]([C@@H](C)O)NC(=O)[C@H](CC(C)C)NC(=O)[C@H](C)NC(=O)[C@H](CO)NC(=O)[C@@H](NC(=O)[C@H](CCCNC(=N)N)NC(=O)[C@H](CCCNC(=N)N)NC(=O)[C@@H](NC(=O)[C@H](C)NC(=O)[C@@H](N)CCCNC(=N)N)C(C)C)CSSC[C@@H](C(=O)N2CCC[C@H]2C(=O)O)NC(=O)[C@H](C(C)C)NC1=O` (H-RAVRRCSALTRIVCP-OH; disulfide 6-14): the Activity in the series with Plasma [2] came out at 45 µM; in the series on Plasma [3], 0.34 µM; with Blood [4], 0.77 µM. Also, in the series with Plasma [5], the EC2 was determined as 1.5 µM. On Coagulation factor XI, the inhibitory constant (Ki) was determined as 2.8 nM.

Consider `CC(C)[C@@H]1NC(=O)[C@H](CCCNC(=N)N)NC(=O)[C@H](C)NC(=O)[C@H](CC(N)=O)NC(=O)[C@H](CO)NC(=O)[C@@H](NC(=O)[C@H](CO)NC(=O)CNC(=O)[C@H](CCC(N)=O)NC(=O)[C@H](C)NC(=O)[C@H](CCCNC(=N)N)NC(=O)[C@H](CCCNC(=N)N)NC(=O)[C@@H]2CSCc3cccc(n3)CSC[C@@H](NC(=O)[C@@H](N)CO)C(=O)N2)CSCc2cccc(n2)CSC[C@@H](C(=O)N[C@@H](Cc2cnc[nH]2)C(=O)O)NC(=O)[C@H](C(C)C)NC1=O`, for which, in the series with Plasma [1], the “fold change (FC)” value is listed as 1.9. Further, the Ki on Coagulation factor XI was determined as 270 nM.

As to `CC[C@H](C)[C@@H]1NC(=O)[C@@H](NC(=O)[C@H](CCCNC(=N)N)NC(=O)[C@@H](NC(=O)[C@H](CC(C)C)NC(=O)[C@@H](NC(=O)[C@@H]2CSC/C=C/CSC[C@H](NC(=O)[C@@H](N)CO)C(=O)N[C@@H](CCC(=O)O)C(=O)N[C@@H]([C@@H](C)O)C(=O)N3CCC[C@H]3C(=O)N[C@@H](CCC(N)=O)C(=O)N[C@@H](C)C(=O)N2)[C@@H](C)O)[C@@H](C)O)CSC/C=C/CSC[C@@H](C(=O)N[C@@H](CC(N)=O)C(=O)O)NC(=O)[C@H](CCC(N)=O)NC(=O)[C@H]([C@@H](C)O)NC1=O` (H-SCETPQACTLTRCITQCN-OH; linker 2-8, 13-17 via X1), the “fold change (FC)” value in the series on Plasma [1] is recorded as 1.7. Also, the inhibition constant (Ki) at Coagulation factor XI was 72 nM.

Turning to `CC[C@H](C)[C@@H]1NC(=O)[C@H](CCCNC(=N)N)NC(=O)[C@H]([C@@H](C)O)NC(=O)[C@H](CC(C)C)NC(=O)[C@H](C)NC(=O)[C@H](CO)NC(=O)[C@@H](NC(=O)[C@H](CCCNC(=N)N)NC(=O)[C@H](CCCNC(=N)N)NC(=O)[C@@H](NC(=O)[C@H](C)NC(=O)[C@H](CCCCN)NC(=O)[C@@H]2CSCc3cccc(n3)CSC[C@@H](NC(=O)[C@@H](N)CCC(N)=O)C(=O)N2)C(C)C)CSCc2cccc(n2)CSC[C@@H](C(=O)N2CCC[C@H]2C(=O)O)NC(=O)[C@H](C(C)C)NC1=O`, the Selectivity ratio in the series filed under Homo sapiens [6], in the series filed under Homo sapiens [7], in the series filed under Homo sapiens [8], in the series filed under Homo sapiens [9], in the series listed under Homo sapiens [10] and in the series filed under Homo sapiens [11] was above 1000 each time. In addition, in the series filed under Homo sapiens [12], the Selectivity ratio is above 1000. The EC2 with Plasma [5] worked out at 2.9 µM; in the series with Plasma [14], 2 µM. Also, the “fold change (FC)” value with Plasma [1] was found to be 2.7. In [13], the half-life (in general, the time in which the quantity being followed falls by half) at 40 µM was 7.6 h. Moreover, the Ki on Coagulation factor XI was found to be 0.9 nM. In addition, in the series on Blood [15], the EC1.5 is 12 µM.

In the case of `CSCC[C@H](NC(=O)[C@H](CO)NC(=O)[C@@H](NC(=O)[C@H](CCCNC(=N)N)NC(=O)[C@H](CCC(N)=O)NC(=O)[C@H](CCC(N)=O)NC(=O)[C@@H]1CSCC(=O)CSC[C@H](NC(=O)[C@@H](N)CC(C)C)C(=O)N[C@@H](CO)C(=O)N[C@@H](CO)C(=O)N2CCC[C@H]2C(=O)N[C@@H](CO)C(=O)N1)[C@@H](C)O)C(=O)N[C@H]1CSCC(=O)CSC[C@H](C(=O)N2CCC[C@H]2C(=O)O)NC(=O)[C@H](CCCNC(=N)N)NC(=O)[C@H](Cc2ccc(O)cc2)NC1=O`, in the series on Plasma [1], the “fold change (FC)” value came out at 1.9. Further, the Ki on Coagulation factor XI was 100 nM.

`CC[C@H](C)[C@@H]1NC(=O)[C@H](CCCNC(=N)N)NC(=O)[C@H]([C@@H](C)O)NC(=O)[C@H](CC(C)C)NC(=O)[C@H](C)NC(=O)[C@H](CO)NC(=O)[C@@H](NC(=O)[C@H](CCCNC(=N)N)NC(=O)[C@H](CCCNC(=N)N)NC(=O)[C@@H](NC(=O)[C@H](C)NC(=O)[C@H](CCCCN)NC(=O)[C@H](CO)NC(=O)[C@H](CO)NC(=O)[C@@H](N)CCC(N)=O)C(C)C)CSSC[C@@H](C(=O)N2CCC[C@H]2C(=O)O)NC(=O)[C@H](C(C)C)NC1=O` (H-QSSKAVRRCSALTRIVCP-OH; disulfide 9-17): in the series on Plasma [5], the EC2 came out at 4.9 µM. Moreover, the inhibition constant Ki on Coagulation factor XI was found to be 2.6 nM.

Turning to `CSCC[C@@H]1NC(=O)CNC(=O)[C@H](CCCNC(=N)N)NC(=O)[C@@H](NC(=O)CN)CSCC(=O)CSC[C@@H](C(=O)N[C@H](C(=O)N[C@@H](CCCNC(=N)N)C(=O)N[C@H](C(=O)N[C@@H](CO)C(=O)N2CCC[C@H]2C(=O)N[C@@H](Cc2ccccc2)C(=O)N[C@H]2CSCC(=O)CSC[C@@H](C(=O)N3CCC[C@H]3C(=O)O)NC(=O)[C@H](CCCNC(=N)N)NC(=O)[C@H](C)NC2=O)[C@@H](C)O)C(C)C)NC(=O)[C@H](CO)NC1=O` (H-GCRGMSCVRTSPFCARCP-OH; linker 2-7, 14-17 via CH2COCH2), the “fold change (FC)” value in the series with Plasma [1] came to 2.4. The Ki at Coagulation factor XI came to 260 nM.

Take `CC[C@H](C)[C@@H]1NC(=O)[C@H](CCCNC(=N)N)NC(=O)[C@H]([C@@H](C)O)NC(=O)[C@H](CC(C)C)NC(=O)[C@H](C)NC(=O)[C@H](CO)NC(=O)[C@@H](NC(=O)[C@H](CCCNC(=N)N)NC(=O)[C@H](CCCNC(=N)N)NC(=O)[C@@H](NC(=O)[C@H](C)NC(=O)[C@H](CCCNC(=N)N)NC(=O)[C@H](CO)NC(=O)[C@H](CO)NC(=O)[C@@H](N)CCC(N)=O)C(C)C)CSSC[C@@H](C(=O)N2CCC[C@H]2C(=O)O)NC(=O)[C@H](C(C)C)NC1=O` (H-QSSRAVRRCSALTRIVCP-OH; disulfide 9-17): the EC2 in the series with Plasma [5] is 3.1 µM. The Ki at Coagulation factor XI turned out to be 2.4 nM.
